Laboratory results as given in ChEMBL document CHEMBL1201862, “PubChem BioAssay data set” (2004).
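96-well plates; 48 h exposure; 5 concentrations. Endpoints by linear interpolation between flanking doses. Not reached: highest tested concentration assigned. GI50 = concentration required for 50% inhibition of growth.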 Activity calls are given as the source filed them. Rule as the data show it: active = GI50 up to about 1.1 µM and inactive = higher.

Assays:
Assay in all cases: NCI tumour cell line growth inhibition, 48 h
SK-MEL-2 = tested on: SK-MEL-2
OVCAR-4 = tested on: OVCAR-4
UACC-62 = tested on: UACC-62
SF-268 = tested on: SF-268
SK-MEL-5 = tested on: SK-MEL-5
NCI-H522 = tested on: NCI-H522
MOLT-4 = tested on: MOLT-4
HCC 2998 = tested on: HCC 2998
U-251 = tested on: U-251
OVCAR-8 = tested on: OVCAR-8
HCT-116 = tested on: HCT-116
KM-20L2 = tested on: KM-20L2
A498 = tested on: A498
RPMI-8226 = tested on: RPMI-8226
EKVX = tested on: EKVX
HCT-15 = tested on: HCT-15
DMS-273 = tested on: DMS-273
MDA-MB-435 = tested on: MDA-MB-435
T47D = tested on: T47D
PC-3 = tested on: PC-3

Row | Compound | GI50 (SK-MEL-2) | GI50 (OVCAR-4) | GI50 (UACC-62) | GI50 (SF-268) | GI50 (SK-MEL-5) | GI50 (NCI-H522) | GI50 (MOLT-4) | GI50 (HCC 2998) | GI50 (U-251) | GI50 (OVCAR-8) | GI50 (HCT-116) | GI50 (KM-20L2) | GI50 (A498) | GI50 (RPMI-8226) | GI50 (EKVX) | GI50 (HCT-15) | GI50 (DMS-273) | GI50 (MDA-MB-435) | GI50 (T47D) | GI50 (PC-3)
1 | CCSc1nc2sc(C)c(C)c2c(=O)n1-c1ccc(C(=O)O)cc1 | > 100 µM (inactive) | 71.8 µM (inactive) | > 100 µM (inactive) | 27.2 µM (inactive) | 49 µM (inactive) | 23.2 µM (inactive) | 48.5 µM (inactive) | 85.1 µM (inactive) | 55.5 µM (inactive) | 72.4 µM (inactive) | 22.7 µM (inactive) | > 100 µM (inactive) | 29.9 µM (inactive) | 34.1 µM (inactive) | 54 µM (inactive) | 39.9 µM |  |  |  | 
2 | Cc1cc(N(CCC#N)CCC#N)ccc1/N=N/c1ccccc1[N+](=O)[O-] | > 100 µM (inactive) | > 100 µM (inactive) | > 100 µM (inactive) | > 100 µM (inactive) | > 100 µM (inactive) | > 100 µM (inactive) | > 100 µM (inactive) | > 100 µM (inactive) | > 100 µM (inactive) | > 100 µM (inactive) |  |  | > 100 µM (inactive) |  | > 100 µM (inactive) | > 100 µM | > 100 µM (inactive) |  |  | 
3 | O=S(=O)(C1=CC(S(=O)(=O)c2ccccc2)COC1)c1ccccc1 (centres undefined) | > 100 µM (inactive) | > 100 µM (inactive) | > 100 µM (inactive) | > 100 µM (inactive) |  | > 100 µM (inactive) | > 100 µM (inactive) | > 100 µM (inactive) | > 100 µM (inactive) | > 100 µM (inactive) | > 100 µM (inactive) |  |  | > 100 µM (inactive) | > 100 µM (inactive) | > 100 µM | > 100 µM (inactive) |  |  | 
4 | CC(C)C12Cc3c(ccc4ccccc34)OC1(C)Oc1ccc3ccccc3c1C2 (centres undefined) | > 100 µM (inactive) | > 100 µM (inactive) | > 100 µM (inactive) | > 100 µM (inactive) | > 100 µM (inactive) | 63.7 µM (inactive) | > 100 µM (inactive) |  | > 100 µM (inactive) | > 100 µM (inactive) | > 100 µM (inactive) | > 100 µM (inactive) |  |  | 10.6 µM (inactive) |  | > 100 µM (inactive) |  |  | 
5 | NCCNCc1c2ccccc2c(CNCCN)c2ccccc12 | 14.5 µM (inactive) | > 10 µM (inactive) | 22 µM (inactive) | 7.98 µM (inactive) | 26.4 µM (inactive) | 8.13 µM (inactive) | 3.78 µM (inactive) | 9.59 µM (inactive) | 22 µM (inactive) | 13.2 µM (inactive) | 5.18 µM (inactive) | 10.3 µM (inactive) | 22.3 µM (inactive) |  | 20.2 µM (inactive) | 38 µM |  |  |  | 
6 | CCSc1s/c(=N/c2ccc(/N=c3\sc(C)c(SC)s3)cc2)sc1-c1ccc(C)cc1 | > 100 µM (inactive) | > 100 µM (inactive) | > 100 µM (inactive) | > 100 µM (inactive) | > 100 µM (inactive) | > 100 µM (inactive) | > 100 µM (inactive) | > 100 µM (inactive) | > 100 µM (inactive) | > 100 µM (inactive) | > 100 µM (inactive) |  | > 100 µM (inactive) | > 100 µM (inactive) | > 100 µM (inactive) | > 100 µM |  | > 100 µM (inactive) | > 100 µM (inactive) | > 100 µM (inactive)
7 | C=CC1=C(C)c2cc3[nH]c(c4c5nc(cc6[nH]c(cc1n2)c(C)c6CC)C(C)=C5C(=O)[C@@H]4C(=O)OC)[C@@H](CCC(=O)O)[C@@H]3C | 4.13 µM (inactive) | 2.54 µM (inactive) | 2.16 µM (inactive) | 9.82 µM (inactive) | 1.42 µM (inactive) | 7.57 µM (inactive) | 1 µM (active) | 2 µM (inactive) | 3.06 µM (inactive) | 3.52 µM (inactive) | 8.71 µM (inactive) |  | 2.55 µM (inactive) | 2 µM (inactive) | 10.2 µM (inactive) | 2.49 µM |  | 2.24 µM (inactive) | 5.81 µM (inactive) | 3.62 µM (inactive)
8 | COC(=O)C1=C(OC(=O)/C(=C/c2ccc(Cl)cc2Cl)c2ccc(Cl)cc2Cl)C(C(=O)OC)[C@@]2(O)[C@@H](C(=O)OC)[C@H](C)C[C@@H]1[C@@H]2C(=O)OC (some centres undefined) | > 100 µM (inactive) | > 100 µM (inactive) | 92.5 µM (inactive) | > 100 µM (inactive) | > 100 µM (inactive) | 64.1 µM (inactive) | > 100 µM (inactive) | > 100 µM (inactive) | > 100 µM (inactive) | 34.4 µM (inactive) | > 100 µM (inactive) |  | > 100 µM (inactive) | > 100 µM (inactive) | 47.8 µM (inactive) | > 100 µM |  | > 100 µM (inactive) | > 100 µM (inactive) | 7.1 µM (inactive)
9 | COc1ccc(NC(=O)CC(=O)NN2C(=O)/C(=C/c3ccc(N(CCC#N)CCC#N)cc3C)N=C2/C=C\c2ccccc2)cc1 | > 100 µM (inactive) | > 100 µM (inactive) | > 100 µM (inactive) | > 100 µM (inactive) | > 100 µM (inactive) | > 100 µM (inactive) | > 100 µM (inactive) |  | > 100 µM (inactive) | > 100 µM (inactive) | > 100 µM (inactive) | > 100 µM (inactive) | > 100 µM (inactive) | > 100 µM (inactive) |  | > 100 µM |  |  |  | 
10 | O=C1C(C(O)(C(F)(F)Cl)C(F)(F)Cl)CCC1C(O)(C(F)(F)Cl)C(F)(F)Cl (centres undefined) | 2.3 µM (inactive) | 3.4 µM (inactive) | 3.25 µM (inactive) | 3.57 µM (inactive) | 5.94 µM (inactive) | 4.45 µM (inactive) | 5.55 µM (inactive) | 3.42 µM (inactive) | 4.4 µM (inactive) | 3.94 µM (inactive) | 2.5 µM (inactive) |  | 3.85 µM (inactive) | > 10 µM (inactive) | 4.1 µM (inactive) | 3.91 µM |  | > 10 µM (inactive) | 4.44 µM (inactive) | 4.53 µM (inactive)
11 | CC(C)OC(=O)c1ccc(CCc2cc(O)c(Br)cc2O)cc1 | 13.1 µM (inactive) | 2.31 µM (inactive) | 20.2 µM (inactive) | 10.1 µM (inactive) | 15.1 µM (inactive) | 6.24 µM (inactive) | 7.94 µM (inactive) | 16.1 µM (inactive) | 7.48 µM (inactive) | 13.9 µM (inactive) | 11.5 µM (inactive) |  | 21 µM (inactive) | 2.72 µM (inactive) | 15.3 µM (inactive) | 6.18 µM |  | 8.11 µM (inactive) | 22 µM (inactive) | 8.32 µM (inactive)
12 | COc1ccc(Oc2cnn(C(Br)(Br)C(C)=O)c(=O)c2Br)cc1 | 16.3 µM (inactive) | 17.4 µM (inactive) | 15.7 µM (inactive) | 14.6 µM (inactive) | 16 µM (inactive) | 4.56 µM (inactive) | 0.861 µM (active) | 16.8 µM (inactive) | 13.9 µM (inactive) | 13.3 µM (inactive) | 7 µM (inactive) |  | 24.8 µM (inactive) | 3.14 µM (inactive) | 17.1 µM (inactive) | 16 µM |  | 10 µM (inactive) | 18.5 µM (inactive) | 14.1 µM (inactive)
